Reference: patent US20130287890A1, “INHIBITOR OF THE PRODUCTION OF ADVANCED GLYCATION END PRODUCTS” (UENO FINE CHEMICALS INDUSTRY, LTD., priority 2012, published 2013)

Experiments:
[1] = tested on: fluorescent AGEs; assay: Quantitative determination of fluorescent AGEs after reaction at 37° C. for 42 days; assay type: biochemical; conditions: for Fluorescent AGEs: 37° C., 42 days
Description: After 0.4 g of a high molecular weight fraction and 8 mL of 6N hydrochloric acid were charged in an ampule and the air in the ampule was replaced with nitrogen, hydrolysis was performed at 110° C. for 16 hours in a heat block. After reaction, 8 mL of 5N sodium hydroxide was added, and pH was adjusted using 1N hydrochloric acid and 1N sodium hydroxide to make pH within a range of 7.2 to 7.6. Then, the solution was filtered through a 0.45 μm filter. Using the thus obtained filtrate as a sample, fluorescent AGEs were quantitatively determined using the following methods. After weighing 2.5 mg of a standard substance perylene, the standard substance perylene was fully dissolved in 10 mL of deaerated ethanol added thereto to prepare a perylene solution. The perylene solution diluted to the concentration of 10 μM was exposed to excitation light with a wavelength of 386 nm and then the area was calculated by measuring a fluorescence intensity ranging from 410 to 600 nm. Meanwhile, the sample was exposed to excitation light with a wavelength of 380 nm and then the area was calculated by measuring a fluorescence intensity ranging from 400 to 600 nm. By considering the area measurement value of the sample as a value relative to the area value of the 10 μM perylene solution, fluorescent AGEs were determined.
(§1) Amino acid or biological protein, carbohydrates and a phosphate buffer solution were charged in a 50 mL polypropylene centrifuge tube in each amount shown in Table 8, followed by sealing and stirring, and then the mixture was reacted in an incubator at 37° C. for 42 days. Next, the reactant was fractionated by centrifugation at 3,000 rpm for 3 hours using an ultrafiltration unit (VIVA SPIN 20, manufactured by Sartorius Corporation). The obtained low molecular weight fraction was used as a sample for determination of 3-DG, while the obtained high molecular weight fraction was used as a sample for the determination of fluorescent AGEs. Amino acid, biological protein and carbohydrates used are as follows:
In the same manner as in Test Example 1, except that the low molecular weight fraction prepared as mentioned above was used as a sample, quantitative determination of 3-DG was performed. In the same manner as in Test Example 2, except that the high molecular weight fraction prepared as mentioned above was used as a sample, determination of fluorescent AGEs was performed.
(§2) Amino acid, carbohydrates and a phosphate buffer solution were charged in a 50 mL polypropylene centrifuge tube in each amount shown in Table 10, followed by sealing and stirring, and then the mixture was reacted in an incubator at 37° C. for 42 days. Next, the reactant was filtered through a 0.2 μm filter and the obtained filtrate was used as a sample. Amino acid and carbohydrates used are as follows:
After weighing 2.5 mg of a standard substance perylene, the standard substance perylene was fully dissolved in 50 mL of deaerated ethanol added thereto to prepare a perylene solution. The perylene solution diluted to the concentration of 10 μM was exposed to excitation light with a wavelength of 386 nm and then the area was calculated by measuring a fluorescence intensity ranging from 410 to 600 nm. Meanwhile, the sample was exposed to excitation light with a wavelength of 380 nm and then the area was calculated by measuring a fluorescence intensity ranging from 400 to 600 nm. By considering the area measurement value of the sample as a value relative to the area value of the 10 μM perylene solution, fluorescent AGEs were quantitatively determined.
Biological proteins, carbohydrates and a phosphate buffer solution are charged in a 50 mL polypropylene centrifuge tube in each amount shown in Table 12, followed by sealing and stirring, and then the mixture was reacted in an incubator at 37° C. for 42 days. Next, the reactant was fractionated by centrifugation at 3,000 rpm for 3 hours using an ultrafiltration unit (VIVA SPIN 20, manufactured by Sartorius Corporation). […]

[2] = tested on: CML; assay: Quantitative determination of CML after reaction at 37° C. for 42 days; assay type: biochemical; conditions: for CML: 37° C., 42 days
Description: as §2
Using CircuLex CML/Nε-(carboxymethyl) lysine ELISA kit (manufactured by CycLex Co., Ltd.), quantitative determination of CML was performed in the following manner. Thirty (30) or more minutes before use, reagents and CML solid-phase wells were put to room temperature. By adding 1 mL of ultrapure water (Milli-Q water) to a CML-HSA standard powder, a master standard was prepared. By performing dilution with standard dilution buffers, standards 1 to 7 were prepared. The sample was diluted as necessary with sample dilution buffers. A CML-HSA standard and 60 μL of the sample were dispensed into a 96-well plate, which is not an accessory to the kit. Next, ultrapure water (Milli-Q water) was added to a first antibody powder, and by diluting with sample dilution buffers, a first antibody solution was prepared; 60 μL of the antibody solution was dispensed into the plate and mixed. After 100 μL of the mixture was added to CML solid-phase wells, the mixture was reacted at 25° C. for 1 hour while being shaken at 300 rpm. Then, the reaction solution was discarded, and 350 μL of rinsing fluid was dispensed to wash the plate. The washing was performed for 4 times. After liquid on the plate was removed, 100 μL of a second antibody solution was dispensed and reacted at 25° C. for 1 hour while being shaken at 300 rpm. The reaction solution was discarded, and the plate was washed for 4 times with 350 μL of rinsing fluid again. Liquid on the plate was removed, and 100 μL of a color coupler was dispensed. Then, the solution was left to stand for 10 minutes under a light shielding condition while being shaken at 300 rpm. Finally, 100 μL of a reaction stop solution was dispensed, and within 30 minutes after the dispensing, measurement was performed at main wavelength 450 nm/reference wavelength 595 nm using a micro-plate reader. The concentration of CML was determined using the calibration curve of a CML standard solution, based on measurement values of the sample.
as §1, with “Biological proteins,” for “Amino acid or biological protein,”, “are” for “were”, “12,” for “8,”, “AGEs, pentosidine, CML, RAGE agonist activity and RAGE antagonist activity. Biological proteins” for “AGEs. Amino acid, biological protein”
In the same manner as in Test Example 4, except that the low molecular weight fraction prepared as mentioned above was used as a sample, quantitative determination of 3-DG was performed. In the same manner as in Test Example 4, except that the high molecular weight fraction was filtered through a 0.2 μm filter and the filtrate was used as a sample, fluorescent AGEs, pentosidine, CML, RAGE agonist activity and RAGE antagonist activity were evaluated.
Collagen, carbohydrates and a phosphate buffer solution were charged in a 50 mL polypropylene centrifuge tube in each amount shown in Table 14, followed by sealing and stirring, and then the mixture was reacted in an incubator at 37° C. for 42 days. […]

[3] = Test Example 4, amino acid 0.4 g + carbohydrate 1.8 g
[4] = Test Example 5, bovine serum albumin 0.4 g + carbohydrate 1.8 g
[5] = Test Example 5, human serum albumin 0.4 g + carbohydrate 1.8 g
[6] = Test Example 5, γ-globulin 0.4 g + carbohydrate 1.8 g
[7] = Test Example 6, collagen 0.015 g + carbohydrate 1.8 g, hydrolysed high molecular weight fraction
[8] = Test Example 3, amino acid (lysine:arginine 1:1) 0.4 g + glucose 1.8 g or maltitol 3.4 g
[9] = Test Example 3, bovine serum albumin 0.4 g + glucose 1.8 g or maltitol 3.4 g
[10] = Test Example 4, amino acid, compared with sections containing glucose and fructose
[11] = Test Example 5, bovine serum albumin, human serum albumin, γ-globulin, compared with sections containing fructose
[12] = Test Example 5, bovine serum albumin, human serum albumin, γ-globulin, compared with sections containing glucose
[13] = Test Example 6, collagen, compared with sections containing glucose and fructose

Structure (SMILES)	Fluorescent AGEs [1, 3]	Fluorescent AGEs [1, 4]	Fluorescent AGEs [1, 5]	Fluorescent AGEs [1, 6]	Fluorescent AGEs [1, 7]	CML [2, 3]	CML [2, 4]	CML [2, 5]	CML [2, 6]	CML [2, 7]	Fluorescent AGEs [1, 8]	Fluorescent AGEs [1, 9]	also measured
O=C(CO)[C@@H](O)[C@H](O)[C@H](O)CO [Fructose]	11.4 nmol/1 mL of reaction solution	28 nmol/1 mL of reaction solution	25.2 nmol/1 mL of reaction solution	17.3 nmol/1 mL of reaction solution	2.4 nmol/1 mL of reaction solution	519 nmol/1 mL of reaction solution	1046 nmol/1 mL of reaction solution	4626 nmol/1 mL of reaction solution	3813 nmol/1 mL of reaction solution	452 nmol/1 mL of reaction solution	–	–	–
OC[C@@H](O)[C@@H](O[C@H]1O[C@H](CO)[C@@H](O)[C@H](O)[C@H]1O)[C@H](O)[C@@H](O)CO [Maltitol]	–	–	–	–	–	–	–	–	–	–	2 nmol/1 g of protein	7 nmol/1 g of protein	production of AGEs ([1]; Test Example 3, amino acids and bovine serum albumin, compared with sections containing glucose): decreased
O=C[C@H](O)[C@@H](O)[C@H](O)[C@H](O)CO [Glucose]	17.4 nmol/1 mL of reaction solution	11 nmol/1 mL of reaction solution	8.6 nmol/1 mL of reaction solution	3.0 nmol/1 mL of reaction solution	1.4 nmol/1 mL of reaction solution	1197 nmol/1 mL of reaction solution	309 nmol/1 mL of reaction solution	1749 nmol/1 mL of reaction solution	3628 nmol/1 mL of reaction solution	475 nmol/1 mL of reaction solution	91 nmol/1 g of protein	46 nmol/1 g of protein	–
OC[C@@H](O)[C@@H](O)[C@H](O)[C@@H](O)CO [Sorbitol]	0.4 nmol/1 mL of reaction solution	2.0 nmol/1 mL of reaction solution	5.4 nmol/1 mL of reaction solution	1.3 nmol/1 mL of reaction solution	0.5 nmol/1 mL of reaction solution	57 nmol/1 mL of reaction solution	10 nmol/1 mL of reaction solution	69 nmol/1 mL of reaction solution	29 nmol/1 mL of reaction solution	445 nmol/1 mL of reaction solution	–	–	production of fluorescent AGEs [1, 10]: decreased; production of fluorescent AGEs [1, 11]: decreased; production of fluorescent AGEs [1, 12]: decreased; production of fluorescent AGEs [1, 13]: decreased; production of CML [2, 10]: decreased; production of CML [2, 11]: decreased; production of CML [2, 12]: decreased; production of CML [2, 13]: decreased
